Experimental data as given in patent publication US8946198B2, “Estrogen replacement regimen” (priority 2002, dated 2015).

Key:
[1] = molecular target: T1, progesterone receptors (Homo sapiens, UniProt P06401); settings: cited from earlier work
T1 sequence (P06401 1-933): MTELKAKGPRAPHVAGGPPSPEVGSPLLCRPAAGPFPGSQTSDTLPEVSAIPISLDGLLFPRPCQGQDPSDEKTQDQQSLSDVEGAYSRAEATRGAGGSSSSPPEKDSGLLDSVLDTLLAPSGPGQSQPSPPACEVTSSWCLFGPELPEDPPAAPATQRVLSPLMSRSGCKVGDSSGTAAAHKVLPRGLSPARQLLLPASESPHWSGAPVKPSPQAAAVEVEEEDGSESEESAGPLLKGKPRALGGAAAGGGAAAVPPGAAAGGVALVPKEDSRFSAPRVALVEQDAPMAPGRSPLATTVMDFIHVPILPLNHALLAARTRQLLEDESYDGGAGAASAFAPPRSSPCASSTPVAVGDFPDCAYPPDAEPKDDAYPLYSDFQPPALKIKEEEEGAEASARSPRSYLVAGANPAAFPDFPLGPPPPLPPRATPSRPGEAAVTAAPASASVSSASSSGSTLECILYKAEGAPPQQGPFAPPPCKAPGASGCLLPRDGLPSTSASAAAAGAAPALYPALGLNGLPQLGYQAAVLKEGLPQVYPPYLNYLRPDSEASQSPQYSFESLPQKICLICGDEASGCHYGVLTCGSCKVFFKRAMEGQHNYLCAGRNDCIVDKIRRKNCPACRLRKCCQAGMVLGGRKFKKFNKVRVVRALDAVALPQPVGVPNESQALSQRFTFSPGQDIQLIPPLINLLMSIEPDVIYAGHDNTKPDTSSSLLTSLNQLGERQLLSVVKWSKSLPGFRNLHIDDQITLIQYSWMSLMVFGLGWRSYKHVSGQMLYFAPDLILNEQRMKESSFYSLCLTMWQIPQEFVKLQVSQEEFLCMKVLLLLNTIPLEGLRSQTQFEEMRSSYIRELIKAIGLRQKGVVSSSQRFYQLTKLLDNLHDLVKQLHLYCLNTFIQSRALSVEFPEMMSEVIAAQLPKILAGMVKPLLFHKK

[2] = molecular target: T2, human sex-hormone-binding globulin (SHBG) (Homo sapiens, UniProt P04278); settings: cited from earlier work
T2 sequence (P04278 30-402): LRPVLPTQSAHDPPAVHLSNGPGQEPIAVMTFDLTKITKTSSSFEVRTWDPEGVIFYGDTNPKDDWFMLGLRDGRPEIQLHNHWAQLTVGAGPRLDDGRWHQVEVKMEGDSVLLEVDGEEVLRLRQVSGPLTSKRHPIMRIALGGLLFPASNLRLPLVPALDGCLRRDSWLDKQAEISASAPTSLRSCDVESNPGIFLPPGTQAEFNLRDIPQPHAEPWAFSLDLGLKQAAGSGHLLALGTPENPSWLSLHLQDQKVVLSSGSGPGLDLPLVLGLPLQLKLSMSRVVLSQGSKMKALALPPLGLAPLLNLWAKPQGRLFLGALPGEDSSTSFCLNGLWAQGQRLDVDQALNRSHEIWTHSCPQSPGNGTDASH

[3] = test system: non-pregnant, oophorectomized ewes; experiment: Uterine blood flow, MAP and heart rate during bolus vs continuous estradiol, first phase; type: in vivo, sheep
Experimental: In the study, fifteen non-pregnant, oophorectomized ewes were implanted with doppler flow probes (Transonic System, Ithaca, N.Y.) on the uterine artery and indwelling catheters were placed in the femoral artery and vein for mean arterial pressure (MAP) measurements and estrogen administration respectively. All animals were oophorectomized. MAP, heart rate (HR) and uterine blood flow (UBF) were recorded for 30 minutes daily for 14 days after at least 60 minutes of adaptation in the recording room. A baseline for each parameter of each sheep was established by averaging values obtained from day 8 through 14 after the last surgery. On day 14, sheep were divided randomly into three groups consisting of 5 animals each. […] The third group (Control) served as a vehicle control. Treatment groups received estrogen from day 15 through 28 and parameters were recorded daily throughout this period. […] It seems that none of the outcome parameters achieved a steady state during the study period.

[4] = test system: non-pregnant, oophorectomized ewes; experiment: Restoration of the uterine blood flow response after continuous infusion, second phase; type: in vivo, sheep; settings: after continuous infusion 220 μg day 15-28
Experimental: In the second phase of the study an ultra-low dose of estrogen (0.01 μg/Kg) was administered to try to restore the response, which was most diminished in the first phase of the study by continuous infusion. The second phase of the study involved continuous infusion of 220 μg of estradiol from day 15 to 28 in another 15 sheep followed by randomization into 3 groups (See FIG. 1). […] UBF was measured throughout the study.

[5] = test system: estrogen receptor (ER); settings: ovariectomized non-pregnant sheep, myometrium and endometrium; cited from earlier work
[6] = continuous iv infusion 220 μg daily

C#C[C@]1(OC(C)=O)CC[C@H]2[C@@H]3CCC4=CC(=NO)CC[C@@H]4[C@H]3CC[C@@]21CC (mixture of isomers) [norgestimate]
binding to progesterone receptors [1]: bind to progesterone receptors
affinity for SHBG [2]: lack of affinity

C#C[C@]1(O)CC[C@H]2[C@@H]3CCC4=CCCC[C@@H]4[C@H]3C(=C)C[C@@]21CC [desogestrel, 13-ethyl-11-methylene-18,19-dinor-17 alpha-pregn-4-en-20-yn-17-ol]
binding to progesterone receptors [1]: bind to progesterone receptors
affinity for SHBG [2]: lack of affinity

C[C@]12CC[C@@H]3c4ccc(O)cc4CC[C@H]3[C@@H]1CC[C@@H]2O [17β-estradiol]
HR on the first day [3, 6]: increased significantly
HR on the second day [3, 6]: dropped to baseline levels
MAP decrease in the first two days [3, 6]: 8.6±4%
increase in UBF at two days of treatment [3, 6]: 1854.2±527.9%
UBF for the next 12 days of the study ([3]; continuous iv infusion 220 μg daily, after day 2 of treatment): returned almost to baseline levels
MAP during the rest of the study ([3]; continuous iv infusion 220 μg daily, after the first two days): gradually increased to baseline levels
UBF after 24 hours (before the next bolus) ([3]; daily single iv bolus 10 μg/kg): returned almost to baseline levels
daily intermittent increase in HR ([3]; daily single iv bolus 10 μg/kg): 15-20%
effect on MAP (mean arterial pressure) ([3]; daily single iv bolus 10 μg/kg): did not affect MAP
HR decrease to levels below the baseline after 24 hours ([3]; daily single iv bolus 10 μg/kg, 24 hours after bolus): 8-10%
increase in UBF (uterine blood flow), start of gradual increase ([3]; daily single iv bolus 10 μg/kg, start of the gradual increase in the first 4 days, vs baseline): 489±206.5%
UBF response to standard bolus doses after 2 days of ultra-low boluses ([4]; 0.01 μg/Kg bolus 2 days, then standard daily bolus (printed 1 μg/Kg) for 3 days (FIG. 4)): complete response
UBF response to standard bolus doses after 2 days of standard boluses ([4]; 10 μg/Kg bolus 2 days, then 10 μg/Kg for 3 more days (FIG. 3)): no response at all
UBF response to standard bolus doses after 2 days of saline boluses ([4]; saline 2 days, then 10 μg/Kg bolus daily for 3 days (FIG. 2)): partial response
effect on ER expression at physiologic concentrations [5]: promoted ER expression
effect on ER expression at supra-physiologic doses [5]: inhibited ER expression
